Data reported in US5210193A, “Piperazine derivatives” (American Cyanamid Company, priority 1990, dated 1993).
In brackets after ≈: the same amount, converted by molar mass.

Legend:
[1] = test system: Enterobacter cloacae MOR 83-30; experiment: in vitro antibacterial MIC, agar plate dilution; type: cell-based; conditions: MOR8330, 18 hours, 35° C.
In short: (§1)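 Minimal inhibitory concentrations came from agar plate dilution in Mueller-Hinton medium. Each organism was delivered at roughly 10^4 CFU by Steers replicator. Plates were read for visible growth after 18 hours at 35° C, values in mcg/ml.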

[2] = test system: Escherichia coli CMC 84-50; experiment: in vitro antibacterial MIC, agar plate dilution; type: cell-based; conditions: Escherichia coli, CMC8450, 18 h, 35° C., read-out: MIC
In short: as §1

[3] = test system: Morganella morganii CMC 84-37; experiment: in vitro antibacterial MIC, agar plate dilution; type: cell-based; conditions: Morganella morganii, CMC8437, 18 h, 35° C., read-out: MIC
In short: as §1

[4] = test system: Serratia marcescens K 84-18; experiment: in vitro antibacterial MIC, agar plate dilution; type: cell-based; conditions: Serratia marcescens, K8418, 18 h, 35° C., read-out: MIC
In short: as §1

[5] = test system: Staphylococcus aureus ATTC 29213; experiment: in vitro antibacterial MIC, agar plate dilution; type: cell-based; conditions: Staphylococcus aureus, ATTC29213, 18 h, 35° C., read-out: MIC
In short: as §1

[6] = test system: Staphylococcus aureus K 82-26; experiment: in vitro antibacterial MIC, agar plate dilution; type: cell-based; conditions: Staphylococcus aureus, K8226, 18 h, 35° C., read-out: MIC
In short: as §1

[7] = test system: Staphylococcus aureus VGH 84-47; experiment: in vitro antibacterial MIC, agar plate dilution; type: cell-based; conditions: Staphylococcus aureus, VGH8447, 18 h, 35° C., read-out: MIC
In short: as §1

[8] = test system: Streptococcus faecalis CMC 83-120; experiment: in vitro antibacterial MIC, agar plate dilution; type: cell-based; conditions: Enterococcus faecalis, CMC83120, 18 h, 35° C., read-out: MIC
In short: as §1

[9] = test system: Streptococcus faecalis VGH 84-65; experiment: in vitro antibacterial MIC, agar plate dilution; type: cell-based; conditions: Enterococcus faecalis, VGH8465, 18 h, 35° C., read-out: MIC
In short: as §1

Escherichia coli 311 = experiment: in vivo antibacterial activity of Example 131, survival of infected mice (Table IV); parameters: species or system Charles River CD-1 female mice
Method: (§2) The in vivo antibacterial activity of 1-cyclopropyl-6-fluoro-7-[3-(fluoromethyl)-1-piperazinyl]-1,4-dihydro-4-oxo-3-quinolinecarboxylic acid (Example 131) was established in the following test.
(§3) Charles River CD-1 female mice, weighing 20±2 g were infected with either Staphylococcus aureus Smith or Escherichia coli 311. A single oral or subcutaneous dose of 1-cyclopropyl-6-fluoro-7-[3-(fluoromethyl)-1-piperazinyl]-1,4-dihydro-4-oxo-3-quinolinecarboxylic acid was administered 1/2 hour after infection. […]

[10] = test system: Staphylococcus aureus Smith; experiment: as above; parameters: species or system Charles River CD-1 female mice
Method: as §2, §3

[11] = subcutaneous, 0.5 mg/kg single dose
[12] = subcutaneous, 1 mg/kg single dose
[13] = subcutaneous, 2 mg/kg single dose

`O=C(O)c1cn(C2CC2)c2cc(N3CCNC(CF)C3)c(F)cc2c1=O` (stereo not drawn) [Example 131, 1-Cyclopropyl-6-fluoro-7-[3-(fluoromethyl)-1-piperazinyl]-1,4-dihydro-4-oxo-3-quinolinecarboxylic acid] was tested, and the MIC [1] was 0.12 µg/mL (≈ 0.33 µM), the MIC [2] was 0.06 µg/mL (≈ 0.165 µM) and the MIC [3] was 0.5 µg/mL (≈ 1.38 µM). The MIC [4] was 0.12 µg/mL (≈ 0.33 µM), the MIC [5] was 0.5 µg/mL (≈ 1.38 µM) and the MIC [6] was 0.5 µg/mL (≈ 1.38 µM). The MIC [7] was 0.25 µg/mL (≈ 0.688 µM), the MIC [8] was 2 µg/mL (≈ 5.5 µM) and the MIC [9] was 1 µg/mL (≈ 2.75 µM). For the same molecule, the “Survival Ratio 7 Days After Infection” value (Escherichia coli 311; oral, 0.12 mg/kg single dose) was 0/10, the “Survival Ratio 7 Days After Infection” value (Escherichia coli 311; oral, 0.25 mg/kg single dose) was 1/10 and the “Survival Ratio 7 Days After Infection” value (Escherichia coli 311; oral, 0.5 mg/kg single dose) was 3/10. For the same molecule, the “Survival Ratio 7 Days After Infection” value (Escherichia coli 311; oral, 1 mg/kg single dose) was 7/10, the “Survival Ratio 7 Days After Infection” value (Escherichia coli 311; oral, 2 mg/kg single dose) was 10/10 and the “Survival Ratio 7 Days After Infection” value (Escherichia coli 311; subcutaneous, 0.12 mg/kg single dose) was 0/10. For the same molecule, the “Survival Ratio 7 Days After Infection” value (Escherichia coli 311; subcutaneous, 0.25 mg/kg single dose) was 2/10, the “Survival Ratio 7 Days After Infection” value (Escherichia coli 311; [11]) was 7/10 and the “Survival Ratio 7 Days After Infection” value (Escherichia coli 311; [12]) was 10/10. For the same molecule, the “Survival Ratio 7 Days After Infection” value (Escherichia coli 311; [13]) was 10/10, the “Survival Ratio 7 Days After Infection” value ([10]; oral, 1 mg/kg single dose) was 0/15 and the “Survival Ratio 7 Days After Infection” value ([10]; oral, 2 mg/kg single dose) was 2/15. The “Survival Ratio 7 Days After Infection” value ([10]; oral, 4 mg/kg single dose) was 10/15, the “Survival Ratio 7 Days After Infection” value ([10]; oral, 8 mg/kg single dose) was 15/15 and the “Survival Ratio 7 Days After Infection” value [10, 11] was 0/15. For the same molecule, the “Survival Ratio 7 Days After Infection” value [10, 12] was 2/15, the “Survival Ratio 7 Days After Infection” value [10, 13] was 14/15 and the “Survival Ratio 7 Days After Infection” value ([10]; subcutaneous, 4 mg/kg single dose) was 15/15.
